Test results taken from patent publication US12258308B2, “Benzene derivative” (ONO PHARMACEUTICAL CO., LTD., priority 2018, dated 2025).

Tests used:
rat Schwann cells = experiment: In vitro test using Schwann cells (Schwann cell differentiation promotion, MAG immunostaining); format: cell-based; conditions: Rattus norvegicus, 72 h, 3 days, MAG-positive area/cell nuclei; for activity at 0.3 µM: compound 0.3 μmol/L, read-out: Schwann cell differentiation promotion rate (% of vehicle) 0.3 μmol/L; for activity at 3 µM: compound 3 μmol/L, read-out: Schwann cell differentiation promotion rate (% of vehicle) 3 μmol/L
Procedure: Biological Experiment Example 1: In Vitro Test Using Schwann Cells
• (1) Preparation of rat Schwann cells
A dorsal root ganglion (abbreviated as “DRG”, hereinafter) was excised from a newborn rat aged 0 to 2 days in a clean bench and was collected in DMEM. After the collection, the tube was centrifuged at 400 g, at room temperature for 3 minutes, then a supernatant was discarded, and a 0.25% collagenase solution was added. There resultant solution was incubated at 37° C. for 30 minutes to disperse and separate the excised DRG, and was then centrifuged at room temperature at 400 g for 3 minutes, then a supernatant was discarded, and then 0.25% Trypsin/EDTA and DNaseI were added. After the incubation at 37° C. for 30 minutes, trypsin was inactivated with DMEM supplemented with 10% FBS (10% FBS-DMEM), and centrifugation was carried out at room temperature at 400 g for 3 minutes. A supernatant was discarded, then 10% FBS-DMEM was added to the residue to prepare a cell suspension, and then the cell suspension was allowed to pass through a filter (diameter: 70 μm). The number of cells in the cell suspension which passed through the filter was counted to prepare a solution having a concentration of 2.0×10^5 cells/mL, and the suspension was seeded in a poly-D-lysine-coated 96-well black-clear plate in an amount of 100 μL/well and was then statically cultured in a CO2 incubator under the conditions including 5% of CO2, 95% of air and 37° C.
The culture medium in the cell culture plate was removed by suction using an aspirator, and then DMEM supplemented with 1% dialyzed FBS and 100 μmol/L dibutyryl cyclic AMP was added. Subsequently, a solution of a compound of the present invention dissolved in DMSO was added, and the resultant solution was statically cultured in a C02 incubator under the conditions including 5% of C02, 95% of air and a temperature of 37° C. The final concentration of the compound of the present invention in each well in the cell culture plate was adjusted to 0.1, 0.3, 1 or 3 μmol/L.
Three days after the treatment with the compound, formaldehyde was added to each well in the cell culture plate, and the cell culture plate was allowed to stand at room temperature for 30 minutes or longer. A supernatant was discarded, and then a 0.3% tritonX-100 solution was added to each well, and then the cell culture plate was allowed to stand at room temperature for 20 minutes or longer. A supernatant was discarded, then a 5-μg/mL anti-myeline-associated glycoprotein antibody (anti-MAG antibody) solution was added to each well, and then the cell culture plate was allowed to stand at room temperature for 60 minutes or longer or at 4° C. (acceptable range: 1 to 9° C.) overnight. Each well was washed with a 0.1% tritonX-100 solution three times, then a 10-μg/mL Alexa fluor 488 anti-mouse IgG solution was added to each well, and then the cell culture plate was allowed to stand at room temperature for 60 or longer or at 4° C. overnight. Each well was washed with a 0.1% tritonX-100 solution four times, and then a 1-μg/mL Hoechst33342 solution was added to each well to stain nuclei.
The Mag-positive area and the number of cell nuclei in a fluorescent image were calculated. With respect to each of the MAG-positive area and the number of cell nuclei, the sum total of values obtained in 5 viewing fields/well was determined. The values were employed as a value for the MAG-positive area and a value for the number of cell nuclei, respectively, in each well. Subsequently, a value determined by dividing the value for the MAG-positive area in each well by the value for the number of cell nuclei in the well (i.e., MAG/cell nuclei numerical value) was calculated. The Schwann cell differentiation promotion rate was determined for each of the vehicles in accordance with the following formula. […]

[1] = tested on: streptozotocin-induced rat model; experiment: Test using streptozotocin-induced rat model (nociceptive threshold, von Frey); format: in vivo; conditions: for Nociceptive threshold improve rate (%) 7 days after withdrawal of administration: 0.3 mg/kg oral once per day day 14 to 28, 35 days after STZ; for Nociceptive threshold improve rate (%) After initial single administration / Nociceptive threshold improve rate (%) 7 days after start of administration / Nociceptive threshold improve rate (%) 14 days after start of administration: 0.3 mg/kg oral once per day; for Nociceptive threshold improve rate (%) After initial single administration: 14 days after STZ, 2 hours after administration; for Nociceptive threshold improve rate (%) 7 days after start of administration: 21 days after STZ; for Nociceptive threshold improve rate (%) 14 days after start of administration: 28 days after STZ
Procedure: Biological Experiment Example 2: Test Using Streptozotocin-Induced Rat Model
In order to evaluate the therapeutic effect of each of the compounds of the present invention on diabetic peripheral neuropathy, an in vivo test using a streptozotocin model was carried out.
A model was produced by intravenously administering streptozotocin (abbreviated as “STZ”, hereinafter) one time at a dose amount of 55 mg/kg to a rat.
(2) Measurement of Nociceptive Threshold
The rat was placed in a clear acryl measurement cage once or more times for 10 minutes or longer until the administration of STZ started. In this manner, the rat was acclimated to the measurement environment. Eight von Frey filaments respectively having weights of 0.4, 0.6, 1, 2, 4, 6, 8 and 15 g were applied vertically to a hindpaw of the rat from under a metallic mesh floor. When a quick escape or flinching reaction was observed, it was determined that a positive reaction occurred (i.e., “response was observed”). Each of the compounds of the present invention was administered orally once per day in a period from day 14 to day 28 after the administration of STZ, wherein the dose amount of each of the compounds was 0.03, 0.3 or 3 mg/kg. A nociceptive threshold was measured 2 hours after the administration of each of the compounds of the present invention at the timings of before the administration of STZ, 14 days after the administration of STZ (i.e., the day of the start of the administration of each of the compounds of the present invention), 21 days after the administration of STZ (i.e., 7 days after the start of the administration of the compound), 28 days after the administration of STZ (i.e., 14 days after the start of the administration of the compound), and 35 days after the administration of STZ (i.e., 7 days after the withdrawal of the administration of the compound).
The nociceptive threshold was measured by the up-down method in accordance with the method of Chaplan et. al. (J Neurosci Methods. 1994; 53:55-63). The rate of improvement in the nociceptive threshold was calculated in accordance with the following formula. Nociceptive threshold improve rate (%)=(nociceptive threshold on each of the number of days elapsed after administration of STZ−B)/(A−B)×100 [Math 2] • A: Nociceptive threshold before administration of STZ • B: Nociceptive threshold on 14 days elapsed after administration of STZ (Results)
The results of the nociceptive thresholds and the nociceptive threshold improve rates obtained when each of the compounds of the present invention was administered at a dose amount of 0.3 mg/kg are shown in the FIGURE and Table 2, respectively. With respect to all of the compounds, a potent pain relief effect against peripheral neuropathy was observed. With respect to the compound of Example 11, for example, the improvement in the nociceptive threshold was observed from 7 days after the start of the administration of the compound, and this effect lasted even 7 days after the withdrawal of the administration.

| Structure (SMILES) | activity at 0.3 µM (rat Schwann cells) [%] | activity at 3 µM (rat Schwann cells) [%] | Nociceptive threshold improve rate (%) 7 days after withdrawal of administration [1] [%] | Nociceptive threshold improve rate (%) After initial single administration [1] [%] | Nociceptive threshold improve rate (%) 7 days after start of administration [1] [%] | Nociceptive threshold improve rate (%) 14 days after start of administration [1] [%] |
| --- | --- | --- | --- | --- | --- | --- |
| O=C(O)CCc1ccccc1OCC[C@@H](O)/C=C/c1cccc(NC(=O)c2ccccc2)c1 [Example 12(1), 3-[2-[(E,3R)-5-(3-Benzamidophenyl)-3-hydroxypent-4-enoxy]phenyl]propanoic acid] | 120 | 274 | 9.1 ± 13.37 | 6.2 ± 5.72 | 17.4 ± 17.19 | 44.6 ± 11.54 |
| O=C(O)CCc1ccccc1OCC[C@@H](O)/C=C/c1ccc2c(c1)CN(S(=O)(=O)c1ccccc1)C2 [Example 13(16), 3-[2-[(E,3R)-5-[2-(Benzenesulfonyl)-1,3-dihydroisoindol-5-yl]-3-hydroxypent-4-enoxy]phenyl]Propanoic Acid] | 170 | 377 | −7.8 ± 14.90 | −6.0 ± 3.87 | 25.8 ± 5.28 | 29.6 ± 8.19 |
| O=C(O)CCc1ccccc1OCC[C@@H](O)CCc1cccc(C(O)Cc2ccccc2)c1 (stereo in doubt) [Example 37, 3-[2-[(3S)-3-Hydroxy-5-[3-[(1S)-1-hydroxy-2-phenylethyl]phenyl]pentoxy]phenyl]propanoic acid] | 171 | 915 | 58.7 ± 19.84 | −11.9 ± 10.78 | 61.3 ± 16.58 | 78.9 ± 9.85 |
| O=C(O)CCc1ccccc1OCCC/C=C/c1cccc(NS(=O)(=O)c2ccccc2)c1 [Example 84, 3-[2-[(E)-5-[3-(Benzenesulfonamido)phenyl]pent-4-enoxy]phenyl]propanoic acid] | 162 | 445 | 58.8 ± 12.51 | 5.7 ± 2.48 | 35.0 ± 16.24 | 49.9 ± 11.50 |
| CN(C)C(=O)CCc1ccccc1OCC[C@@H](O)/C=C/c1cccc(NS(=O)(=O)c2ccccc2)c1 [Example 32(2), 3-[2-[(E,3R)-5-[3-(Benzenesulfonamido)phenyl]-3-hydroxypent-4-enoxy]phenyl]-N,N-dimethylpropanamide] | 340 | 788 | – | – | – | – |
| O=C(O)CCc1ccccc1OCCC(F)(F)CCc1cccc(NS(=O)(=O)c2ccccc2)c1 [Example 139, 3-[2-[5-[3-(Benzenesulfonamido)phenyl]-3,3-difluoropentoxy]phenyl]propanoic acid] | 209 | 541 | – | – | – | – |
| O=C(O)CCc1ccccc1OCCOCCc1cccc(NS(=O)(=O)c2ccccc2)c1 [Example 149, 3-[2-[2-[2-[3-(Benzenesulfonamido)phenyl]ethoxy]ethoxy]phenyl]propanoic Acid] | 160 | 645 | – | – | – | – |
| O=C(O)CCc1ccccc1OCC[C@@H](O)/C=C/c1cccc(C[C@H](O)c2ccccc2)c1 [Example 26, 3-[2-[(E,3R)-3-Hydroxy-5-[3-[(2S)-2-hydroxy-2-phenylethyl]phenyl]pent-4-enoxy]phenyl]propanoic acid] | 196 | 439 | – | – | – | – |
| O=C(O)CCc1ccccc1OCC[C@@H](O)/C=C/c1cccc(NS(=O)(=O)c2coc3ccccc23)c1 [Example 74(17), 3-[2-[(E,3R)-5-[3-(1-Benzofuran-3-ylsulfonylamino)phenyl]-3-hydroxypent-4-enoxy]phenyl]propanoic acid] | 85.6 | 252 | – | – | – | – |
| O=C(O)CCc1ccccc1CCCC(=O)CCc1cccc(NS(=O)(=O)c2ccccc2)c1 [Example 112, 3-[2-[6-[3-(Benzenesulfonamido)phenyl]-4-oxohexyl]phenyl]propanoic acid] | 255 | 504 | – | – | – | – |
| COC(=O)CCc1ccccc1OCCC(=O)/C=C/c1cccc(NS(=O)(=O)c2ccccc2)c1 [Example 77, Methyl 3-[2-[(E)-5-[3-(benzenesulfonamido)phenyl]-3-oxopent-4-enoxy]phenyl]propanoate] | 115 | 256 | – | – | – | – |
| O=C(O)CCc1ccccc1OCC[C@@H](O)CCc1cccc(NS(=O)(=O)C2CCCC2)c1 [Example 75, 3-[2-[(3S)-5-[3-(Cyclopentylsulfonylamino)phenyl]-3-hydroxypentoxy]phenyl]propanoic Acid] | 181 | 244 | – | – | – | – |
| O=C(O)CCc1ccccc1OCC[C@@H](O)/C=C/c1cccc(NCc2ccccc2)c1 [Example 12(6), 3-[2-[(E,3R)-5-[3-(Benzylamino)phenyl]-3-hydroxypent-4-enoxy]phenyl]propanoic acid] | 144 | 435 | – | – | – | – |
| O=C(O)CCc1ccccc1OCC[C@@H](O)/C=C/c1cccc(NS(=O)(=O)c2ccsc2)c1 [Example 74(19), 3-[2-[(E,3R)-3-Hydroxy-5-[3-(thiophen-3-ylsulfonylamino)phenyl]pent-4-enoxy]phenyl]propanoic Acid] | 187 | 270 | – | – | – | – |
| O=C(O)CCc1ccccc1OCC[C@@H](O)/C=C/c1cccc(S(=O)(=O)Nc2ccccc2)c1 [Example 12(7), 3-[2-[(E,3R)-3-Hydroxy-5-[3-(phenylsulfamoyl)phenyl]pent-4-enoxy]phenyl]propanoic acid] | 111 | 379 | – | – | – | – |
